Source: ChEMBL document CHEMBL1201862, “PubChem BioAssay data set” (2004)
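96-well plates; 48 h exposure; 5 concentrations. Endpoints by linear interpolation between flanking doses. Not reached: highest tested concentration assigned. Here, GI50 denotes the concentration required for 50% inhibition of growth.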 Activity calls are given as the source filed them. No stated cut-off is given here; in the data, active = GI50 up to about 1.1 µM and inactive = higher.

Columns and labels:
Experiment in all cases: inhibition of tumour cell growth, NCI panel, 48 h
SF-295 = tested on: SF-295
OVCAR-8 = tested on: OVCAR-8
ACHN = tested on: ACHN
NCI-H226 = tested on: NCI-H226
SK-MEL-2 = tested on: SK-MEL-2
HCT-15 = tested on: HCT-15
OVCAR-4 = tested on: OVCAR-4
HCT-116 = tested on: HCT-116
SR = tested on: SR
A549 = tested on: A549
RXF 393 = tested on: RXF 393
SK-OV-3 = tested on: SK-OV-3
UACC-257 = tested on: UACC-257
UACC-62 = tested on: UACC-62
K562 = tested on: K562
SNB-19 = tested on: SNB-19
NCI/ADR-RES = tested on: NCI/ADR-RES
MDA-MB-231 = tested on: MDA-MB-231
MDA-N = tested on: MDA-N

Compound | GI50 (SF-295) | GI50 (OVCAR-8) | GI50 (ACHN) | GI50 (NCI-H226) | GI50 (SK-MEL-2) | GI50 (HCT-15) [µM] | GI50 (OVCAR-4) | GI50 (HCT-116) | GI50 (SR) | GI50 (A549) | GI50 (RXF 393) | GI50 (SK-OV-3) | GI50 (UACC-257) | GI50 (UACC-62) | GI50 (K562) | GI50 (SNB-19) | GI50 (NCI/ADR-RES) | GI50 (MDA-MB-231) | GI50 (MDA-N)
CC1=CCC[C@@]2(C)C(CC[C@@H]2C(C)/C=C/C(C)C)c2ccc(cc2C(=O)O)C[C@@H](O)CC1 (some centres undefined) | 9.27 µM (inactive) | 15.2 µM (inactive) | 6.37 µM (inactive) | 18.5 µM (inactive) | 17.1 µM (inactive) | 5.07 | 12.1 µM (inactive) | 5.21 µM (inactive) | 13.5 µM (inactive) | 6.14 µM (inactive) | 15.9 µM (inactive) | 18.1 µM (inactive) | 16.6 µM (inactive) | 10.9 µM (inactive) | 9.89 µM (inactive) | 5.2 µM (inactive) | – | – | –
CC1(C)C2CCC1(C)C(N/C(Sc1ccccc1)=C(/C(Cl)=C(Cl)Cl)[N+](=O)[O-])C2 (centres undefined) | 13.1 µM (inactive) | 13.8 µM (inactive) | 13.5 µM (inactive) | 16.8 µM (inactive) | 12.5 µM (inactive) | 10.4 | 13.4 µM (inactive) | 15.5 µM (inactive) | – | 14.5 µM (inactive) | – | 13.8 µM (inactive) | 14.3 µM (inactive) | 9.14 µM (inactive) | 6.35 µM (inactive) | 18.1 µM (inactive) | 14 µM (inactive) | 10.4 µM (inactive) | 10.6 µM (inactive)
CCN(CC)/C(SCc1ccccc1)=C(\C(Cl)=C(Cl)Cl)[N+](=O)[O-] | 36.1 µM (inactive) | 16.9 µM (inactive) | 16.3 µM (inactive) | 18.9 µM (inactive) | 21.7 µM (inactive) | 25.5 | 15.6 µM (inactive) | 14.7 µM (inactive) | 17.8 µM (inactive) | 16.6 µM (inactive) | 13.1 µM (inactive) | 39.6 µM (inactive) | 17.5 µM (inactive) | 3.87 µM (inactive) | 25.8 µM (inactive) | 28.9 µM (inactive) | 17.1 µM (inactive) | 27.1 µM (inactive) | 16.4 µM (inactive)
CCOC(=O)c1c(O)cc(=O)[nH]c1N1CCOCC1 | > 100 µM (inactive) | > 100 µM (inactive) | > 100 µM (inactive) | > 100 µM (inactive) | > 100 µM (inactive) | > 100 | – | > 100 µM (inactive) | > 100 µM (inactive) | > 100 µM (inactive) | – | > 100 µM (inactive) | > 100 µM (inactive) | > 100 µM (inactive) | > 100 µM (inactive) | > 100 µM (inactive) | > 100 µM (inactive) | – | > 100 µM (inactive)
Cc1ccc(Nc2nc(C)c(C(/C=C/c3ccc4c(c3)OCO4)=N/Nc3ccc([N+](=O)[O-])cc3[N+](=O)[O-])s2)c([N+](=O)[O-])c1 | 65 µM (inactive) | 70.3 µM (inactive) | 21.5 µM (inactive) | 25 µM (inactive) | 28 µM (inactive) | 25.8 | 56.6 µM (inactive) | 52.7 µM (inactive) | 24.4 µM (inactive) | 45.8 µM (inactive) | 38 µM (inactive) | 26.7 µM (inactive) | 53 µM (inactive) | 3.59 µM (inactive) | 14.3 µM (inactive) | 83 µM (inactive) | – | – | –
C=C(C)C1CCC2=CC(CC3(C)OC3C3=CC(C(=O)OC)=C(C1)O3)OC2=O (centres undefined) | > 100 µM (inactive) | > 100 µM (inactive) | > 100 µM (inactive) | > 100 µM (inactive) | > 100 µM (inactive) | > 100 | – | > 100 µM (inactive) | 83.2 µM (inactive) | > 100 µM (inactive) | 52.5 µM (inactive) | – | > 100 µM (inactive) | – | > 100 µM (inactive) | > 100 µM (inactive) | > 100 µM (inactive) | 93.3 µM (inactive) | > 100 µM (inactive)
CCC1OC2C(CC=C(C)C)=C3OC(C)(O)C(C)(CC)C(=O)C3=C3OC(=O)C=C1C32 (centres undefined) | 47 µM (inactive) | – | 26.3 µM (inactive) | 25.9 µM (inactive) | 17.3 µM (inactive) | 32.4 | 29.5 µM (inactive) | 15.5 µM (inactive) | – | 22.6 µM (inactive) | – | > 100 µM (inactive) | 26.8 µM (inactive) | 20.7 µM (inactive) | 26 µM (inactive) | 27.4 µM (inactive) | 27.8 µM (inactive) | 15.5 µM (inactive) | –
Cc1ccc(S(=O)(=O)N2CCCSCCSCCCSCC2)cc1 | > 100 µM (inactive) | > 100 µM (inactive) | – | – | – | > 100 | > 100 µM (inactive) | > 100 µM (inactive) | > 100 µM (inactive) | > 100 µM (inactive) | – | > 100 µM (inactive) | > 100 µM (inactive) | > 100 µM (inactive) | > 100 µM (inactive) | > 100 µM (inactive) | > 100 µM (inactive) | > 100 µM (inactive) | –
